Experimental data taken from article PMC8213057, “Targeting ALK2: An Open Science Approach to Developing Therapeutics for the Treatment of Diffuse Intrinsic Pontine Glioma” (Journal of Medicinal Chemistry, 2020).

Tests used:
[1] = molecular target: ERK5/MAPK7 (Homo sapiens, UniProt Q13164); experiment: biochemical; conditions: read-out: % enzyme activity, 1 μM; Run 1, Run 2
[2] = molecular target: T1, TAOK3/JIK (Homo sapiens, UniProt Q9H2K8); conditions: 1 μM; Run 1, Run 2
T1 sequence (Q9H2K8 1-898): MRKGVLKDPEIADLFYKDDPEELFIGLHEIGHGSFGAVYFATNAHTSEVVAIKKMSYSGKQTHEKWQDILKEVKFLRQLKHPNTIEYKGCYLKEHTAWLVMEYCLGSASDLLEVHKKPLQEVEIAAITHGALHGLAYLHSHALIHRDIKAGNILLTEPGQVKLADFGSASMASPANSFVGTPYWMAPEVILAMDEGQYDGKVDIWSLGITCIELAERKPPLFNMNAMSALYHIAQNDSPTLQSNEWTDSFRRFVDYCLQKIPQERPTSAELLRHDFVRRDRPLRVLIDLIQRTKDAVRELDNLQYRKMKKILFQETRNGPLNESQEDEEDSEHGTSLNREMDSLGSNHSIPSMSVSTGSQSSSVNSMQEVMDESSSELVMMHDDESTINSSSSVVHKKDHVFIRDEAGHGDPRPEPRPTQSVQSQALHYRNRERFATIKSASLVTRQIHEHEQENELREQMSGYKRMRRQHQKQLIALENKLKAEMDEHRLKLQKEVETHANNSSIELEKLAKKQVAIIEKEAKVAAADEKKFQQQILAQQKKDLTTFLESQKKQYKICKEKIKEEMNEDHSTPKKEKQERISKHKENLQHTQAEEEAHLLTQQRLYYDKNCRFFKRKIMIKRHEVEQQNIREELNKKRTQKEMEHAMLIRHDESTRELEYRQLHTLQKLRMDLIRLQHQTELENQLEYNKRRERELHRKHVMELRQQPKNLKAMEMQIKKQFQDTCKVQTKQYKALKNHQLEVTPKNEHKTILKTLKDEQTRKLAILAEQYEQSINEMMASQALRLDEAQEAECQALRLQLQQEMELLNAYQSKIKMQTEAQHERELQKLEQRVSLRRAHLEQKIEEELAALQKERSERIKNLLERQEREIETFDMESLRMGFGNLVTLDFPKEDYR

[3] = molecular target: ZIPK/DAPK3 (Homo sapiens, UniProt O43293); conditions: 1 μM; Run 1, Run 2
Sequence of ZIPK/DAPK3 (O43293 whole entry): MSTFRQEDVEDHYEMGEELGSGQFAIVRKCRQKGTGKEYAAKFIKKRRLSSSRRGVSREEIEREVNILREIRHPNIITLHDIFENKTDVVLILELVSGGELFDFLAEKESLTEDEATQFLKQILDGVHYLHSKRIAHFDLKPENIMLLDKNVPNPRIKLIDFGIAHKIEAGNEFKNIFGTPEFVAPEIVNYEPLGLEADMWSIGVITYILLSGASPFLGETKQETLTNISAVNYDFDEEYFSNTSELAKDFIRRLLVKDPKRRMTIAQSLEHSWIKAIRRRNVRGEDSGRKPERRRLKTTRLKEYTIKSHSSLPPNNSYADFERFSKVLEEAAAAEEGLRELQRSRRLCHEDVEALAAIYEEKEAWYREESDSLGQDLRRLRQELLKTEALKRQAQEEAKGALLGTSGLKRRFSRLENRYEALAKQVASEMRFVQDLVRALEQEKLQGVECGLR

[4] = molecular target: FYN (Homo sapiens, UniProt P06241); conditions: 1 μM; Run 1, Run 2
Sequence of FYN (P06241 whole entry): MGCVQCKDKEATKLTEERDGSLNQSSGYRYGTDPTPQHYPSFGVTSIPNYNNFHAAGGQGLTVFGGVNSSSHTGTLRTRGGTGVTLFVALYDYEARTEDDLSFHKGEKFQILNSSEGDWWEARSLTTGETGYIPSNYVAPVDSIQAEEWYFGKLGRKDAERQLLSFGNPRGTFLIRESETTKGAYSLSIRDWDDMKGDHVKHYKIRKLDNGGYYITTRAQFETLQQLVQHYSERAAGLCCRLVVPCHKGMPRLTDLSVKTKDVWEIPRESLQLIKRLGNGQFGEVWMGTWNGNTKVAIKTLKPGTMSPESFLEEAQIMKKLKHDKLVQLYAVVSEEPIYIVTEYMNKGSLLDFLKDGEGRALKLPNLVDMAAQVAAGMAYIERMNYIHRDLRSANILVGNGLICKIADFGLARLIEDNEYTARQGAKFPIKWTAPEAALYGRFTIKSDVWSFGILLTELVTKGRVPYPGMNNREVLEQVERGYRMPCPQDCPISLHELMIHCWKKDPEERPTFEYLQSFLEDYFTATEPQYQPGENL

[5] = molecular target: T2, Haspin (Homo sapiens, UniProt Q8TF76); experiment: biochemical; conditions: read-out: % enzyme activity, 1 μM; Run 1, Run 2
T2 sequence (Q8TF76 1-798): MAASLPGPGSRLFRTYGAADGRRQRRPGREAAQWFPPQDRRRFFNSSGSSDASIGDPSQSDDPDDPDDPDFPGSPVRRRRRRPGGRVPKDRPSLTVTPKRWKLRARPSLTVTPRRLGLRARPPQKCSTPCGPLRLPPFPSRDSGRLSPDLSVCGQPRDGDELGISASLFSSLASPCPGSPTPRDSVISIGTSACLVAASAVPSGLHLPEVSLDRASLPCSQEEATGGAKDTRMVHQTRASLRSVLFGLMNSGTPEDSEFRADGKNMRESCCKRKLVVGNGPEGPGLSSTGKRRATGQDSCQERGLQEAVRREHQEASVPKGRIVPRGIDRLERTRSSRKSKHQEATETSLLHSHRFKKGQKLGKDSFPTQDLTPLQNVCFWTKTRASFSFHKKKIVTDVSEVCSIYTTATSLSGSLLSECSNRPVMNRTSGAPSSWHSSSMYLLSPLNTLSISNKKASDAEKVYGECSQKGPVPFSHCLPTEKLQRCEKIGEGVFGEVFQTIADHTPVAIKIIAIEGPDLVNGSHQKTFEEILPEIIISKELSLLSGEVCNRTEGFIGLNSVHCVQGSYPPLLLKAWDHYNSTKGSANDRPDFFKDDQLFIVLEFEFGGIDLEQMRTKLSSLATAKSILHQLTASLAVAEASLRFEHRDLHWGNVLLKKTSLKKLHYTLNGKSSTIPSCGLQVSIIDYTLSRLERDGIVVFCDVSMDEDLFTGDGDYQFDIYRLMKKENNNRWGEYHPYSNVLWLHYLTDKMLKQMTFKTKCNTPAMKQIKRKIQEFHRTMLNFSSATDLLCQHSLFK

[6] = molecular target: T3, TYRO3/SKY (Homo sapiens, UniProt Q06418); conditions: 1 μM; Run 1, Run 2
T3 sequence (Q06418 41-890): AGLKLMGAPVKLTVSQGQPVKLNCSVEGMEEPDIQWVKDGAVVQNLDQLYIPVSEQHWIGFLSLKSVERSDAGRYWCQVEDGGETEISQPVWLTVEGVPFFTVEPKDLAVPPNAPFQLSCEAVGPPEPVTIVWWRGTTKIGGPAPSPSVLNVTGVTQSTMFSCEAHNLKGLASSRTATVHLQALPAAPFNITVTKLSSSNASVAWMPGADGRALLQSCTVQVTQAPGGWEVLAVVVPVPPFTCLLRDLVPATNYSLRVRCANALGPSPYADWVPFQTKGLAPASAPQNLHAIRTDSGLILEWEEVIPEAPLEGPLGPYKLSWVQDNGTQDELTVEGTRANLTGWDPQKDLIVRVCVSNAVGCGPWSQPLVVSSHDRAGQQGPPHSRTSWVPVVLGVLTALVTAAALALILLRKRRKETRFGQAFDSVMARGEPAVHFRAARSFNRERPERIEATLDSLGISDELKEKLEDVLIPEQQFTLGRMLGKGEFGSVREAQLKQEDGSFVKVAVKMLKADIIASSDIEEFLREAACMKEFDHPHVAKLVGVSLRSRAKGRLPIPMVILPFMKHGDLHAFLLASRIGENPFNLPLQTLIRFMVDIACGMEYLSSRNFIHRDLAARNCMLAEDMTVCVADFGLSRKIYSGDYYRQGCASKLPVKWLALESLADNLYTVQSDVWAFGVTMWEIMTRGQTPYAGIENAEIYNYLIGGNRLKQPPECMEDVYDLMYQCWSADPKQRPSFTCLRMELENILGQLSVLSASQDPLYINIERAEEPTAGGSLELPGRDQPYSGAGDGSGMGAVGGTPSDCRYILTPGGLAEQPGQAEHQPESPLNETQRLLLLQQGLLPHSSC

Sequence of ERK5/MAPK7 (Q13164 whole entry): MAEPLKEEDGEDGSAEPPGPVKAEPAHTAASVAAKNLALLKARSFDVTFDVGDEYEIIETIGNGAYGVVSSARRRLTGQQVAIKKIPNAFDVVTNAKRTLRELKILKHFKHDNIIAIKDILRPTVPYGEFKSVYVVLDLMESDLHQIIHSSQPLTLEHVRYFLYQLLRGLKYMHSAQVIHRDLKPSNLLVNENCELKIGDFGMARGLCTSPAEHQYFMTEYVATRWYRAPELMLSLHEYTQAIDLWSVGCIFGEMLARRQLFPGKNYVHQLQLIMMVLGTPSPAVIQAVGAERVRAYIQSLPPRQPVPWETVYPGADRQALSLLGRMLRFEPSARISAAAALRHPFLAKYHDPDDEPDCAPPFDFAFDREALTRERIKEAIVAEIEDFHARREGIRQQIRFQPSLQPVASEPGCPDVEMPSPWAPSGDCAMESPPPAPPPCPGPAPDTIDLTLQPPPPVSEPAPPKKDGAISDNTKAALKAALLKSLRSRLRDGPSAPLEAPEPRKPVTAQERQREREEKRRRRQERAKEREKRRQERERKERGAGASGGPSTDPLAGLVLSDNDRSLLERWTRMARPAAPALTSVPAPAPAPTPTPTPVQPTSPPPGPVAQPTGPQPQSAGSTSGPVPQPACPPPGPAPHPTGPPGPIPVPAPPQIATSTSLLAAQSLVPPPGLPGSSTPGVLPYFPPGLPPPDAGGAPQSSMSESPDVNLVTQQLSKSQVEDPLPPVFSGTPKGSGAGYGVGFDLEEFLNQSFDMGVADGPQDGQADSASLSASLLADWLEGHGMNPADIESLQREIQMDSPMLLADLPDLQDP

Row | SMILES | remaining activity at 1 µM [1] [%] | % enzyme activity [2] [%] | % enzyme activity [3] [%] | % enzyme activity [4] [%] | remaining activity at 1 µM [5] [%] | % enzyme activity [6] [%]
1 | COc1cc(-c2cncc(-c3ccc(N4CCN(C)CC4)cc3)c2C)cc(F)c1C(N)=O [Compound 26a, 2-Fluoro-6-methoxy-4-(4-methyl-5-(4-(4-methylpiperazin-1-yl)phenyl)pyridin-3-yl)benzamide] | 96.5 | 69.26 | 103.31 | 97.69 | 83.3 | 83.48
2 | COc1cc(-c2cncc(-c3ccc(N4C[C@@H](C)N(C)[C@@H](C)C4)cc3)c2C)cc(F)c1C(N)=O [Compound 26c, 2-Fluoro-6-methoxy-4-(4-methyl-5-(4-((3R,5S)-3,4,5-trimethylpiperazin-1-yl)phenyl)pyridin-3-yl)benzamide] | 101 | 81.51 | 102.34 | 96.30 | 84.8 | 93.66
